According to ChEMBL document CHEMBL1201862, “PubChem BioAssay data set” (2004):
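How tested: cells in 96-well plates exposed to compound for 48 hours at five concentrations. Here, GI50 denotes the concentration required for 50% inhibition of growth.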 Calls of active or inactive are those of the source. Cut-off read from the data, not from the text of the source: active = GI50 up to about 1.1 µM and inactive = higher.

How the values were obtained:
Test in all cases: growth of human tumour cells (NCI), 48 h
SR = system: SR
RXF 393 = system: RXF 393
NCI-H460 = system: NCI-H460
HOP-18 = system: HOP-18
SK-OV-3 = system: SK-OV-3
EKVX = system: EKVX
CCRF-CEM = system: CCRF-CEM
SK-MEL-2 = system: SK-MEL-2
SNB-75 = system: SNB-75
ACHN = system: ACHN
SF-268 = system: SF-268
SK-MEL-28 = system: SK-MEL-28
UACC-257 = system: UACC-257
HCT-15 = system: HCT-15
UACC-62 = system: UACC-62
TK-10 = system: TK-10
MDA-MB-435 = system: MDA-MB-435
MCF7 = system: MCF7
T47D = system: T47D
Hs-578T = system: Hs-578T

CC1(Br)C(=O)NC(=O)N([C@H]2C[C@H](O)[C@@H](CO)O2)C1N=[N+]=[N-] (stereo partly drawn)
GI50 (SR): > 100 µM (inactive) | GI50 (RXF 393): > 100 µM (inactive) | GI50 (NCI-H460): > 100 µM (inactive) | GI50 (HOP-18): > 100 µM (inactive) | GI50 (SK-OV-3): > 100 µM (inactive) | GI50 (EKVX): > 100 µM (inactive) | GI50 (CCRF-CEM): > 100 µM (inactive) | GI50 (SK-MEL-2): > 100 µM (inactive) | GI50 (SNB-75): > 100 µM (inactive) | GI50 (ACHN): > 100 µM (inactive) | GI50 (SF-268): > 100 µM (inactive) | GI50 (SK-MEL-28): > 100 µM (inactive) | GI50 (UACC-257): > 100 µM (inactive) | GI50 (HCT-15): > 100 µM | GI50 (UACC-62): > 100 µM (inactive) | GI50 (TK-10): > 100 µM (inactive)

NC1=NN(c2ccccc2)C(=O)C1C(=O)C(=O)NC1C2CC3CC(C2)CC1C3 (stereo not drawn)
GI50 (SR): > 100 µM (inactive) | GI50 (RXF 393): > 100 µM (inactive) | GI50 (NCI-H460): > 100 µM (inactive) | GI50 (HOP-18): > 100 µM (inactive) | GI50 (SK-OV-3): 24.9 µM (inactive) | GI50 (EKVX): > 100 µM (inactive) | GI50 (CCRF-CEM): > 100 µM (inactive) | GI50 (SK-MEL-2): > 100 µM (inactive) | GI50 (ACHN): > 100 µM (inactive) | GI50 (SF-268): > 100 µM (inactive) | GI50 (SK-MEL-28): > 100 µM (inactive) | GI50 (UACC-257): > 100 µM (inactive) | GI50 (HCT-15): > 100 µM | GI50 (UACC-62): > 100 µM (inactive) | GI50 (TK-10): > 100 µM (inactive)

CC(=O)/C(=C\c1ccccc1O)C(=O)Nc1ccccc1C
GI50 (SR): 13.1 µM (inactive) | GI50 (RXF 393): 19.1 µM (inactive) | GI50 (NCI-H460): 23.7 µM (inactive) | GI50 (HOP-18): 40.2 µM (inactive) | GI50 (SK-OV-3): 51.9 µM (inactive) | GI50 (EKVX): 36 µM (inactive) | GI50 (CCRF-CEM): 14.3 µM (inactive) | GI50 (SK-MEL-2): 18.9 µM (inactive) | GI50 (ACHN): 17.5 µM (inactive) | GI50 (SF-268): 26 µM (inactive) | GI50 (SK-MEL-28): 24.3 µM (inactive) | GI50 (UACC-257): 31.9 µM (inactive) | GI50 (HCT-15): 14.1 µM | GI50 (UACC-62): 20 µM (inactive) | GI50 (TK-10): > 10 µM (inactive)

COC1CC(Br)(C#N)C1 (stereo not drawn)
GI50 (SR): > 100 µM (inactive) | GI50 (RXF 393): > 100 µM (inactive) | GI50 (HOP-18): > 100 µM (inactive) | GI50 (SK-OV-3): > 100 µM (inactive) | GI50 (EKVX): > 100 µM (inactive) | GI50 (SK-MEL-2): > 100 µM (inactive) | GI50 (SF-268): > 100 µM (inactive) | GI50 (SK-MEL-28): > 100 µM (inactive) | GI50 (HCT-15): > 100 µM | GI50 (UACC-62): > 100 µM (inactive) | GI50 (TK-10): > 100 µM (inactive)

O=P1(N(CCCl)CCCl)NCCCO1 (stereo not drawn) [CYCLOPHOSPHAMIDE ANHYDROUS]
GI50 (SR): > 250 µM (inactive) | GI50 (MDA-MB-435): > 250 µM (inactive) | GI50 (RXF 393): > 250 µM (inactive) | GI50 (NCI-H460): > 238 µM (inactive) | GI50 (MCF7): > 250 µM (inactive) | GI50 (HOP-18): 121 µM (inactive) | GI50 (SK-OV-3): 248 µM (inactive) | GI50 (EKVX): > 250 µM (inactive) | GI50 (CCRF-CEM): 200 µM (inactive) | GI50 (SK-MEL-2): > 238 µM (inactive) | GI50 (SNB-75): > 232 µM (inactive) | GI50 (ACHN): > 250 µM (inactive) | GI50 (SF-268): > 250 µM (inactive) | GI50 (SK-MEL-28): > 250 µM (inactive) | GI50 (UACC-257): 211 µM (inactive) | GI50 (HCT-15): > 250 µM | GI50 (UACC-62): > 250 µM (inactive) | GI50 (T47D): > 88.7 µM (inactive) | GI50 (Hs-578T): > 250 µM (inactive) | GI50 (TK-10): > 250 µM (inactive)

CN1CC[C@]2(C)c3c(O)cccc3CC3CCCC1C32C (stereo partly drawn)
GI50 (SR): > 100 µM (inactive) | GI50 (RXF 393): > 100 µM (inactive) | GI50 (NCI-H460): > 100 µM (inactive) | GI50 (HOP-18): 54.1 µM (inactive) | GI50 (SK-OV-3): > 100 µM (inactive) | GI50 (EKVX): > 100 µM (inactive) | GI50 (CCRF-CEM): > 100 µM (inactive) | GI50 (SK-MEL-2): > 100 µM (inactive) | GI50 (SNB-75): 45.4 µM (inactive) | GI50 (ACHN): > 100 µM (inactive) | GI50 (SF-268): > 100 µM (inactive) | GI50 (SK-MEL-28): > 100 µM (inactive) | GI50 (UACC-257): > 100 µM (inactive) | GI50 (HCT-15): > 100 µM | GI50 (UACC-62): > 100 µM (inactive) | GI50 (TK-10): > 100 µM (inactive)

Cc1ccc(N2C(=O)C(Cl)=C(Cl)C2=O)cc1
GI50 (SR): 21.3 µM (inactive) | GI50 (RXF 393): 12.5 µM (inactive) | GI50 (NCI-H460): > 100 µM (inactive) | GI50 (HOP-18): 19 µM (inactive) | GI50 (SK-OV-3): 44 µM (inactive) | GI50 (EKVX): 21.5 µM (inactive) | GI50 (CCRF-CEM): 5.11 µM (inactive) | GI50 (SK-MEL-2): > 100 µM (inactive) | GI50 (SNB-75): 22.5 µM (inactive) | GI50 (ACHN): 19.6 µM (inactive) | GI50 (SF-268): 17.9 µM (inactive) | GI50 (SK-MEL-28): 16.5 µM (inactive) | GI50 (UACC-257): 19.1 µM (inactive) | GI50 (HCT-15): 19.2 µM | GI50 (UACC-62): > 10 µM (inactive)

N#Cc1ccc(C2SCc3nc4ccccc4n32)cc1 (stereo not drawn)
GI50 (RXF 393): 10.5 µM (inactive) | GI50 (NCI-H460): > 100 µM (inactive) | GI50 (HOP-18): 48.5 µM (inactive) | GI50 (SK-OV-3): > 100 µM (inactive) | GI50 (EKVX): 69.3 µM (inactive) | GI50 (CCRF-CEM): > 100 µM (inactive) | GI50 (SK-MEL-2): > 100 µM (inactive) | GI50 (SNB-75): 38.5 µM (inactive) | GI50 (ACHN): 63.8 µM (inactive) | GI50 (SF-268): > 100 µM (inactive) | GI50 (SK-MEL-28): 42.4 µM (inactive) | GI50 (UACC-257): > 100 µM (inactive) | GI50 (HCT-15): > 100 µM | GI50 (UACC-62): 50.7 µM (inactive) | GI50 (TK-10): 81.7 µM (inactive)
